Results on nine compounds are retold here after ChEMBL document CHEMBL1152712, “5-Hydroxyindole-type alkaloids, as Candida albicans isocitrate lyase inhibitors, from the tropical sponge Hyrtios sp” (Bioorg Med Chem Lett, 2009).

Experiment [1] concerns the target Isocitrate lyase (Candida albicans, UniProt Q9P8Q7). Put plainly: Inhibition of Candida albicans isocitrate lyase.
For experiment [2], the system named is Candida albicans. Put plainly: Antimicrobial activity against Candida albicans ATCC 10231. Format: functional.

In brackets after ≈: the same amount, converted by molar mass. Some results are limits rather than exact numbers.

Chain of Isocitrate lyase (Q9P8Q7 whole entry): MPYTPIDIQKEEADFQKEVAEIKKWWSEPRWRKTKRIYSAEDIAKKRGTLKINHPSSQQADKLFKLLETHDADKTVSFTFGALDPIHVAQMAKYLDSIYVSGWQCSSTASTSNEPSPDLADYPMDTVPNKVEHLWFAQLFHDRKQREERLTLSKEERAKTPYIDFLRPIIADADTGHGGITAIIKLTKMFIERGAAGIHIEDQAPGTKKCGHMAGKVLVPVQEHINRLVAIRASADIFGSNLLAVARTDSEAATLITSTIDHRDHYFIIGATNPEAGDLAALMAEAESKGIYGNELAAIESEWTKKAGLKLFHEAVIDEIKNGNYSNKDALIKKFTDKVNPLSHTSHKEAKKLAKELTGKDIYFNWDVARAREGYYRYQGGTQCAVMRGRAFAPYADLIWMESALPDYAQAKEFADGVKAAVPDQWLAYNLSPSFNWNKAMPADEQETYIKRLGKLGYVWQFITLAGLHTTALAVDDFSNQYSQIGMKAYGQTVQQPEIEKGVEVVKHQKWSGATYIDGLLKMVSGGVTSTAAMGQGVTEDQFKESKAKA

Consider `O=C1NCCc2c1[nH]c1ccc(O)cc21`, for which, in experiment [1], the 50% inhibitory concentration (IC50) is above 989 µM. Also, in experiment [2], the minimum inhibitory concentration (MIC) was above 989 µM.

In experiment [2], `O=C(O)CC[N+](=O)[O-]` came in with a minimum inhibitory concentration (MIC) above 1690 µM.

In the case of `COC(=O)c1c[nH]c2ccc(O)cc12`, in experiment [1], the midpoint of inhibition, the IC50, lay at 800 µM. The compound also came in with a minimum inhibitory concentration (MIC) in experiment [2] above 1050 µM.

The compound `O=C(O)C1=NCCc2c1[nH]c1ccc(O)cc21` showed an IC50 in experiment [1] of 380 µM. The same compound registered an MIC in experiment [2] above 869 µM.

`O=Cc1c[nH]c2ccc(O)cc12` yielded a concentration for half-maximal inhibition (IC50) in experiment [1] of 247 µM. For the same compound, the minimum inhibitory concentration (MIC) in experiment [2] is above 1020 µM.

In turn, `C[C@@H]1[C@H](O)[C@@H](C)/C=C/C=C/C=C/C=C/C=C/C=C/C=C/[C@H](O[C@@H]2O[C@H](C)[C@@H](O)[C@H](N)[C@@H]2O)C[C@@H]2O[C@](O)(C[C@@H](O)C[C@@H](O)[C@H](O)CC[C@@H](O)C[C@@H](O)CC(=O)O[C@H]1C)C[C@H](O)[C@H]2C(=O)O` [AMPHOTERICIN B] registered a minimal inhibitory concentration (MIC) in experiment [2] of 1.7 µM (≈ 1.57 µg/mL). This lies in the single-digit micromolar range.

Compound `O=C(CO)c1c[nH]c2ccc(O)cc12` [HYRTIOSIN A] gave an IC50 in experiment [1] of 318 µM. This compound showed an MIC in experiment [2] above 1050 µM.

In turn, `O=C(C(=O)c1c[nH]c2ccc(O)cc12)c1c[nH]c2ccc(O)cc12` [HYRTIOSIN B] had a concentration for half-maximal inhibition (IC50) in experiment [1] of 89 µM. The minimal inhibitory concentration (MIC) in experiment [2] is above 624 µM.

Regarding `NCCc1c[nH]c2ccc(O)cc12` [SEROTONIN], the half-maximal inhibitory concentration (IC50) in experiment [1] was determined as 301 µM. Moreover, in experiment [2], the MIC is above 1130 µM.

By IC50 is commonly meant the point on the concentration scale where inhibition reaches its midpoint. A high value points to weaker potency. The MIC is the lowest concentration that inhibits growth of the organism. Higher therefore signals weaker potency.
